Data reported in PMC3070195 (Bioconjugate chemistry, 2010).

Tests used:
[1] = test system: Vero cells; experiment: Cytotoxicity in Vero cells; type: cell-based, African green monkey; details: 3 days, hemacytometer; for IC50: read-out: Cytotoxicity IC50 VERO cells
[2] = test system: PBM cells; experiment: Cytotoxicity in uninfected PHA-stimulated PBM cells; type: cell-based, human; details: 6 days, cell growth, trypan blue exclusion
[3] = as above; type: cell-based, human; details: human, uninfected PHA-stimulated PBM cells
[4] = Cytotoxicity in Vero cells; type: cell-based, African green monkey; details: African green monkey, Vero (kidney) cells
[5] = Cytotoxicity in CEM cells; type: cell-based; details: human, CEM (CEM-CCRF) T-lymphoblastoid cells

O=c1ccn([C@H]2C=C[C@@H](COP(=O)(O)OC[C@H]3OC(O)[C@H](O)[C@@H](O)[C@@H]3O)O2)c(=O)[nH]1 (stereo partly drawn) [10a, 2′,3′-Didehydro-2′,3′-dideoxyuridine 5′-(α/β-D-glucopyranos-6-yl) phosphate]
IC50 [1]: > 100 µM

Cc1cn([C@H]2C=CC(COP(=O)(O)OC[C@H]3O[C@H](O)[C@H](O)[C@@H](O)[C@@H]3O)O2)c(=O)[nH]c1=O (stereo partly drawn) [10b, 2′,3′-Didehydro-2′,3′-dideoxythymidine 5′-(α/β-D-glucopyranos-6-yl) phosphate]
Cytotoxicity IC50 VERO cells [1]: no cytotoxicity | IC50 [1]: > 100 µM | Cytotoxicity IC50 PBM cells [2]: no cytotoxicity

O=c1[nH]c(=O)n([C@H]2C[C@H](O)[C@@H](COP(=O)(O)OC[C@H]3OC(O)[C@H](O)[C@@H](O)[C@@H]3O)O2)cc1I (stereo partly drawn) [10c, 2′-Deoxy-5-iodouridine 5′-(α/β-D-glucopyranos-6-yl) phosphate]
IC50 [1]: > 100 µM

O=c1[nH]c(=O)n([C@H]2C[C@H](OP(=O)(O)OC[C@H]3O[C@H](O)[C@H](O)[C@@H](O)[C@@H]3O)[C@@H](CO)O2)cc1I [10d, 2′-Deoxy-5-iodouridine 3′-(α/β-D-glucopyranos-6-yl) phosphate]
IC50 [1]: > 100 µM

O=c1[nH]cnc2c1ncn2[C@H]1CC[C@@H](COP(=O)(O)OC[C@H]2OC(O)[C@H](O)[C@@H](O)[C@@H]2O)O1 (stereo partly drawn) [10e, 2′,3′-Dideoxyinosine 5′-(α/β-D-glucopyranos-6-yl) phosphate]
IC50 [1]: > 100 µM

Nc1ncnc2c1ncn2[C@H]1CC[C@@H](COP(=O)(O)OC[C@H]2OC(O)[C@H](O)[C@@H](O)[C@@H]2O)O1 (stereo partly drawn) [10f, 2′,3′-Dideoxyadenosine 5′-(α/β-D-glucopyranos-6-yl) phosphate]
IC50 [1]: 73.2 µM

NC(=O)c1ncn([C@@H]2O[C@H](COP(=O)(O)OC[C@H]3OC(O)[C@H](O)[C@@H](O)[C@@H]3O)[C@@H](O)[C@H]2O)n1 (stereo partly drawn) [10g, 1′-(3-Carbamoyl-1,2,4-triazoyl)-β-D-ribofuranose 5′-(α/β-D-glucopyranos-6-yl) phosphate]
IC50 [1]: > 100 µM

Nc1ncnc2c1ncn2[C@@H]1O[C@H](COP(=O)(O)OC[C@H]2OC(O)[C@H](O)[C@@H](O)[C@@H]2O)[C@@H](O)[C@@H]1O (stereo partly drawn) [10h, 1′-Adeninyl-β-D-arabinofuranose 5′-(α/β-D-glucopyranos-6-yl) phosphate]
IC50 [1]: > 100 µM

Nc1ccn([C@@H]2O[C@H](COP(=O)(O)OC[C@H]3OC(O)[C@H](O)[C@@H](O)[C@@H]3O)[C@@H](O)[C@@H]2O)c(=O)n1 (stereo partly drawn) [10i, 1′-Cytosinyl-β-D-arabinofuranose 5′-(α/β-D-glucopyranos-6-yl) phosphate]
IC50 [1]: < 1 µM

Cc1cn([C@H]2C[C@H](N=[N+]=[N-])[C@@H](CO)O2)c(=O)[nH]c1=O [AZT, zidovudine]
IC50 at 6 days [3]: > 100 µM

Nc1ncnc2c1ncn2[C@@H]1O[C@H](CO)[C@@H](O)[C@@H]1O [Ara-A, ara-adenosine]
IC50 at 3 days [4]: > 100 µM | IC50 at 6 days [5]: 26.2 µM | IC50 at 6 days [3]: 26 µM

Nc1ccn([C@@H]2O[C@H](CO)[C@@H](O)[C@@H]2O)c(=O)n1 [Ara-C, Ara-cytidine]
IC50 at 6 days [5]: < 0.1 µM | IC50 at 6 days [3]: 57 µM

O=c1[nH]c(=O)n([C@H]2C[C@H](O)[C@@H](CO)O2)cc1I [IdUrd]
IC50 [1]: > 100 µM

NC(=O)c1ncn([C@@H]2O[C@H](CO)[C@@H](O)[C@H]2O)n1 [Virazole]
IC50 at 3 days [4]: > 100 µM | IC50 at 6 days [5]: 53 µM | IC50 at 6 days [3]: > 100 µM

Cc1cn([C@H]2C=C[C@@H](CO)O2)c(=O)[nH]c1=O [d4T]
IC50 [1]: > 100 µM

O=c1ccn([C@H]2C=C[C@@H](CO)O2)c(=O)[nH]1 [d4U]
IC50 [1]: > 100 µM

Nc1ncnc2c1ncn2[C@H]1CC[C@@H](CO)O1 [ddA]
IC50 [1]: > 100 µM

O=c1[nH]cnc2c1ncn2[C@H]1CC[C@@H](CO)O1 [ddI]
IC50 [1]: > 100 µM
